Measurements as given in PMC11097369 (ACS Omega, 2024).

Tests used:
CFU-GM assay = type: cell-based; settings: human, human bone marrow mononuclear cells
R/R-PTCL = settings: cited from earlier work
SCLC = settings: second-line treatment, patients with SCLC; cited from earlier work

Row | SMILES | IC90 (CFU-GM assay) [nM] | progression-free survival compared to investigator-selected single-agent comparators (R/R-PTCL) | overall response rate (SCLC) [%]
1 | COc1cc(Nc2ncc3c(n2)-c2ccc(Cl)cc2C(c2c(F)cccc2OC)=NC3)ccc1C(=O)O [Alisertib] | 252 | failed to improve the progression-free survival | 
2 | COc1ccc2[nH]c3c(c2c1)CCN[C@]31CS[C@@H]2c3c(OC(C)=O)c(C)c4c(c3[C@H](COC1=O)N1[C@@H]2[C@H]2c3c(cc(C)c(OC)c3O)C[C@@H]([C@@H]1O)N2C)OCO4 [lurbinectedin] |  |  | 35.2
